Data from doi:10.1101/2021.06.23.449549v1 (biorxiv, 2021).

Columns and labels:
AtPQT11/CYP86A4 = target: T1, AtPQT11/CYP86A4 (Arabidopsis thaliana, UniProt Q9LMM1); format: biochemical; conditions: 2 mM NADPH in excess; 25 mM phosphate pH 7.0; 27 °C; N-demethylation
T1 sequence (Q9LMM1 1-554): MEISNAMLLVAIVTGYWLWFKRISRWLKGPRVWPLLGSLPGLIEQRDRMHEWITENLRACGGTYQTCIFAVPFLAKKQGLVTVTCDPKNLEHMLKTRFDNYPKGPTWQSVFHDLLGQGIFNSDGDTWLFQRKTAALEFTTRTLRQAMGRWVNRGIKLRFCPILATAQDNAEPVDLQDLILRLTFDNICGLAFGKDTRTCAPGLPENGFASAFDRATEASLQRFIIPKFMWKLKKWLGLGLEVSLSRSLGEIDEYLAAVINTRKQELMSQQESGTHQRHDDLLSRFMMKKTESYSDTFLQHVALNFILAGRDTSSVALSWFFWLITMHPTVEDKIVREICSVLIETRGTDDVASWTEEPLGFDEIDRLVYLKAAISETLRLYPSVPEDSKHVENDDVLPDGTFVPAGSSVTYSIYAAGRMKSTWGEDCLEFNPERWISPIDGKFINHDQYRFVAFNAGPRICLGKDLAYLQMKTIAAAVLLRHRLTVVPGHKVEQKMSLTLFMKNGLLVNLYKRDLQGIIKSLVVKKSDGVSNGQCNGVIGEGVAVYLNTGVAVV

purified protein = substrate: NC(=O)C1=CN([C@@H]2O[C@H](COP(=O)(O)OP(=O)(O)OC[C@H]3O[C@@H](n4cnc5c(N)ncnc54)[C@H](OP(=O)(O)O)[C@@H]3O)[C@@H](O)[C@H]2O)C=CC1; assay: purified protein; format: biochemical, Arabidopsis thaliana; conditions: pH 7.0; 27.0 °C; varied: cofactor

Row | Molecule | Km (AtPQT11/CYP86A4) | Km (purified protein)
1 | C[n+]1ccc(-c2cc[n+](C)cc2)cc1 [paraquat, 1,1’-dimethyl-4,4’-bipyridynium dichloride] | 1.34 µM | 
2 | AtPQT11/CYP86A4 (Arabidopsis thaliana) (protein) MEISNAMLLVAIVTGYWLWFKRISRWLKGPRVWPLLGSLPGLIEQRDRMHEWITENLRACGGTYQTCIFAVPFLAKKQGLVTVTCDPKNLEHMLKTRFDNYPKGPTWQSVFHDLLGQGIFNSDGDTWLFQRKTAALEFTTRTLRQAMGRWVNRGIKLRFCPILATAQDNAEPVDLQDLILRLTFDNICGLAFGKDTRTCAPGLPENGFASAFDRATEASLQRFIIPKFMWKLKKWLGLGLEVSLSRSLGEIDEYLAAVINTRKQELMSQQESGTHQRHDDLLSRFMMKKTESYSDTFLQHVALNFILAGRDTSSVALSWFFWLITMHPTVEDKIVREICSVLIETRGTDDVASWTEEPLGFDEIDRLVYLKAAISETLRLYPSVPEDSKHVENDDVLPDGTFVPAGSSVTYSIYAAGRMKSTWGEDCLEFNPERWISPIDGKFINHDQYRFVAFNAGPRICLGKDLAYLQMKTIAAAVLLRHRLTVVPGHKVEQKMSLTLFMKNGLLVNLYKRDLQGIIKSLVVKKSDGVSNGQCNGVIGEGVAVYLNTGVAVV |  | 1155 (±214.9) μM
